Data from BigSolDB 2.1.

O=C(O)c1ccc(CO)cc1
solubility (mole fraction)
Settings	in ethanol	in ethyl acetate	in ethyl formate	in isopropanol	in isopropyl acetate	in methanol	in n-butyl acetate	in n-propanol	in water
283.15 K	0.0289	0.00475	0.00168	0.0268	0.00324	0.0282	0.00341	0.0236	0.000244
288.15 K	0.0325	0.00528	0.00259	0.0294	0.00444	0.0323	0.00463	0.026	0.000254
293.15 K	0.0367	0.00653	0.00319	0.0337	0.00481	0.0361	0.00508	0.0298	0.0003
298.15 K	0.0414	0.00797	0.00396	0.0391	0.00599	0.0414	0.00622	0.0345	0.00039
303.15 K	0.0468	0.00919	0.00431	0.044	0.00827	0.0473	0.00854	0.0367	0.000532
308.15 K	0.0529	0.0109	0.00535	0.0523	0.00969	0.0535	0.01	0.0446	0.000641
313.15 K	0.0599	0.0133	0.00704	0.0602	0.0113	0.0608	0.0117	0.0516	0.000816
318.15 K	0.0678	0.0161	0.00773	0.0697	0.0127	0.0682	0.0132	0.0591	0.000993
323.15 K	0.0768	0.0199	0.00889	0.0826	0.0155	0.078	0.0158	0.0705	0.00128
